Source: ChEMBL document CHEMBL1781880, “Total synthesis and evaluation of 22-(3-azidobenzoyloxy)methyl epothilone C for photoaffinity labeling of beta-tubulin” (2009)
Calls of active or inactive are those of the source. The calls are words filed in the database; no cut-off is given here.

Assays:
MCF7 [1] = assay: Cytotoxicity against human MCF7 cells by […] labeling study; assay type: functional; settings: MCF7, light or radiation study, read-out: ED50 (the source's name)
[2] = Induction of microtubule assembly by photoaffinity labeling study
[3] = Cytotoxicity against human NCI/ADR cells by phototoxicity labeling study; assay type: functional; settings: NCI/ADR-RES, light or radiation study, read-out: ED50 (the source's name)
[4] = Ratio of ED50 for epothilone B to ED50 for compound for human NCI/ADR cells; assay type: functional
[5] = Ratio of ED50 for epothilone B to ED50 for compound for induction of microtubule assembly by photoaffinity labeling study
[6] = Induction of microtubule assembly by photoaffinity labeling study in presence of epothilone B
MCF7 [7] = assay: Ratio of ED50 for epothilone B to ED50 for compound for human MCF7 cells; assay type: functional

Row | Structure (SMILES) | EC50 (MCF7 [1]) [nM] | ED50 [2] [nM] | EC50 [3] [nM] | Ratio ED50 [4] | Ratio ED50 [5] | Activity [6] | Ratio ED50 (MCF7 [7])
1 | C/C(=C\c1csc(C)n1)[C@@H]1C[C@@H]2O[C@]2(C)CCC[C@H](C)[C@H](O)[C@@H](C)C(=O)C(C)(C)[C@@H](O)CC(=O)O1 [PATUPILONE] | 1.5 | 1000 | 1.2 |  |  |  | 
2 | C/C(=C\c1csc(C)n1)[C@@H]1C/C=C\CCC[C@H](C)[C@H](O)[C@@H](C)C(=O)[C@](C)(CCOC(=O)c2cccc(N=[N+]=[N-])c2)[C@@H](O)CC(=O)O1 | 1200 | 5100 | 1000 | 833 | 5.1 | inactive | 632
